Reference: patent US20020091086A1, “Peptides that block viral infectivity and methods of use thereof” (priority 1999, published 2002)
Where two headings read alike, the source gives them in different places. Peptide text beside a SMILES is read from it.

What was measured:
HIV-1 = conditions: 100 μM, HUT78 cells; for p24 / reduction (%): Experiment 6, Day 7 HIV-1; for HIV-1 infection, result in words: summary of Experiment 6
Experimental: In experiment 6 (Table 7 and FIG. 1), approximately 200,000 HUT78 cells were infected with HIV-1 at 25 TCID50 to test the inhibitory effect of GPG-NH2, RQG-NH2, KQG-NH2, ALG-NH2, GVG-NH2, VGG-NH2, ASG-NH2, SLG-NH2, and SPT-NH2. The HUT cells were resuspended in lml of RPMI 1640 medium supplemented with 10% (v/v) heat-inactivated fetal bovine serum (FBS, GIBCO), penicillin (100 u/ml), streptomycin (100 u/ml) and Polybrene (Sigma, 2 μg/ml) with or without the presence of the different small peptides (100 μM) mentioned above. Thereafter, the HIV-1 virus was added at 25 TCID50 in a volume of 20 μl. Cells were incubated with the virus at 37° C. for one hour and, subsequently, the cells were pelleted at 170×g for seven minutes. The cells were then washed three times in RPMI medium without peptides at room temperature by cell sedimentation at 170×g for seven minutes, as above. After the final wash, the cells were resuspended in RPMI culture medium containing the peptides in 24-well plate (Costar corporation) and were kept at 37° C. in 5% CO2 with humidity. Culture supernatants were collected when medium was changed at day 4, 7, and 11 post infection and viral p24 production was monitored by using an HIV-1 p24 ELISA kit (Abbott Laboratories, North Chicago, USA).

HIV-1 SF-2 virus = experiment: electron microscopy of HIV-1 particles from infected HUT78 cells; assay type: cell-based; conditions: 0.5μM; cells fixed day 14
Experimental: In this set of experiments, HUT78 cells were infected with HIV-1 SF-2 virus at 300TCID50 for 1 hr at 37° C. Subsequently, the infected cells were washed and pelleted 3 times, as described in Example 2. Thereafter, the cells were resuspended in RPMI culture medium supplemented with 10% FBS, antibiotics (100 u/ml) and polybrene (3.2 μg/ml). GPG-NH2 was then added into the cell cultures 3, 5 or 7 days post infection at concentration of 1 μM or 10 μM. A control sample was administered 0.5μM Ritonavir (a protease inhibitor).
The cells were cultured until day 14, at which point, the cells were fixed in 2.5% glutaraldehyde by conventional means. The fixed cells were then postfixed in 1% OSO4 and were dehydrated, embedded with epoxy resins, and the blocks were allowed to polymerize. Epon sections of virus infected cells were made approximately 60-80 nm thin in order to accommodate the width of the nucleocapsid. The sections were mounted to grids stained with 1.0% uranyl acetate and were analyzed in a Zeiss CEM 902 microscope at an accelerating voltage of 80 kV. The microscope was equipped with a spectrometer to improve image quality and a liquid nitrogen cooling trap was used to reduce beam damage. The grids having sections of control and GPG-NH2 incubated cells were examined in several blind studies.

[1] = test system: HIV-1 isolate p7141 (high PI); experiment: resistant HIV-1 isolates in PBMC, p24 ELISA; assay type: cell-based; conditions: Rito 0.1 μM, 14 days post infection
[2] = test system: HIV-1 isolate p7300 (low PI); experiment: resistant HIV-1 isolates in PBMC, p24 ELISA; assay type: cell-based; conditions: Rito 0.1 μM, 14 days post infection

Row | Structure (SMILES) | p24 (HIV-1) [pg/mL] | reduction (%) (HIV-1) | HIV-1 infection, result in words (HIV-1) | further results
1 | C[C@H](N)C(=O)N[C@@H](CO)C(=O)NCC(N)=O [ASG-NH2, alanyl-seryl-glycine amide] (H-Ala-Ser-Gly-NH2) | 15000 | 25 |  | 
2 | CC(C)[C@H](NC(=O)CN)C(=O)NCC(N)=O [GVG-NH2, glycyl-valyl-glycine amide] (H-Gly-Val-Gly-NH2) | 15000 | 25 |  | 
3 | NCCCC[C@H](N)C(=O)N[C@@H](CCC(N)=O)C(=O)NCC(N)=O [KQG-NH2, lysyl-glutaminyl-glycine amide] (H-Lys-Gln-Gly-NH2) | 154 | ~100 | inhibited and/or prevented HIV-1 infection | reduction (%) (HIV-1; listed as KQG—NH2): 99%
4 | N=C(N)NCCC[C@H](N)C(=O)N[C@@H](CCC(N)=O)C(=O)NCC(N)=O [RQG-NH2, arginyl-glutaminyl-glycine amide] (H-Arg-Gln-Gly-NH2) | 113 | ~100 | inhibited and/or prevented HIV-1 infection | reduction (%) (HIV-1; listed as RQG—NH2): 99%
5 | CC(C)c1nc(CN(C)C(=O)N[C@H](C(=O)N[C@@H](Cc2ccccc2)C[C@H](O)[C@H](Cc2ccccc2)NC(=O)OCc2cncs2)C(C)C)cs1 [Ritonavir, reference compound] |  |  |  | viral particle structure, electron microscopy (HIV-1 SF-2 virus): malformed structures that did not have a discemable nucleocapsid; % reduction [1]: (14%); HIV-1 p24 [1]: 98000 pg/mL; % reduction [2]: (56%); HIV-1 p24 [2]: 64000 pg/mL
6 | CC(C)C[C@H](NC(=O)[C@@H](N)CO)C(=O)NCC(N)=O [SLG-NH2, seryl-leucyl-glycine amide] (H-Ser-Leu-Gly-NH2) | 114 | ~100 | inhibited and/or prevented HIV-1 infection | reduction (%) (HIV-1; listed as SLG—NH2): 99%
7 | C[C@@H](O)[C@H](NC(=O)[C@@H]1CCCN1C(=O)[C@@H](N)CO)C(N)=O [SPT-NH2, seryl-prolyl-threonine amide] (H-Ser-Pro-Thr-NH2) | 15000 | 25 |  | 
8 | CC(C)[C@H](N)C(=O)NCC(=O)NCC(N)=O [VGG-NH2, valyl-glycyl-glycine amide] (H-Val-Gly-Gly-NH2) | 10000 | 50 |  | 
